Measurements from US11497212B2, “Substituted thiophenyl uracils, salts thereof and the use thereof as herbicidal agents” (Syngenta Crop Protection AG, priority 2017, dated 2022).
Each block holds one compound with its values, some of them ahead of it.

Columns and labels:
Type in all cases: in vivo
[1] = tested on: Zea mays; assay: Crop compatibility pre-emergence (greenhouse pot trial); conditions: application rate 80 g/ha, effect vs untreated controls
Outline: (§1)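 Visual percentage scoring against untreated controls, about 3 weeks after treatment, gave the crop injury values (100% = plants died, 0% = like controls). Compounds, as wettable powders or emulsion concentrates, were sprayed onto covering soil over sown seeds at 600 L/ha water with 0.5% additive.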

[2] = tested on: Glycine max; assay: as above; conditions: application rate 80 g/ha, effect vs untreated controls
Outline: as §1

[3] = tested on: Lolium rigidum; assay: Herbicidal action pre-emergence (greenhouse pot trial); conditions: application rate 320 g/ha
Outline: (§2)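 Pre-emergence: WP or EC formulations sprayed onto covering soil over sown seeds as aqueous suspension/emulsion with 0.5% additive, 600 L/ha water, at 320 g/ha or lower. Visual percent efficacy versus untreated controls after about 3 weeks in greenhouse (100% = plants dead).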

[4] = tested on: Cyperus esculentus; assay: as above; conditions: application rate 320 g/ha
Outline: as §2

[5] = tested on: Veronica persica; assay: as above; conditions: application rate 320 g/ha
Outline: as §2

[6] = tested on: Echinochloa crus-galli; assay: as above; conditions: application rate 320 g/ha, scored after about 3 weeks
Outline: as §2

[7] = tested on: Setaria viridis; assay: as above; conditions: application rate 320 g/ha, scored after about 3 weeks
Outline: as §2

[8] = tested on: Avena fatua; assay: as above; conditions: application rate 320 g/ha
Outline: as §2

[9] = tested on: Hordeum murinum; assay: as above; conditions: application rate 320 g/ha
Outline: as §2

[10] = tested on: Alopecurus myosuroides; assay: as above; conditions: application rate 320 g/ha, scored after about 3 weeks
Outline: as §2

[11] = tested on: Viola tricolor; assay: as above; conditions: application rate 320 g/ha, scored after about 3 weeks
Outline: as §2

[12] = tested on: Matricaria inodora; assay: as above; conditions: scored after about 3 weeks
Outline: as §2

[13] = tested on: Stellaria media; assay: as above; conditions: application rate 320 g/ha, scored after about 3 weeks
Outline: as §2

[14] = tested on: Pharbitis purpurea; assay: as above; conditions: application rate 320 g/ha
Outline: as §2

[15] = tested on: Abutilon theophrasti; assay: as above; conditions: scored after about 3 weeks
Outline: as §2

[16] = tested on: Amaranthus retroflexus; assay: as above; conditions: scored after about 3 weeks
Outline: as §2

[17] = tested on: Lolium rigidum; assay: Herbicidal action post-emergence (greenhouse pot trial); conditions: application rate 80 g/ha, scored visually after about 3 weeks vs untreated controls
Outline: (§3)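 Weed seeds sown in sandy loam were grown in a greenhouse for 2–3 weeks and treated at the one-leaf stage. WP or EC formulations, with 0.5% additive, were sprayed on green parts at a water rate of 600 L/ha and at 80 g/ha or lower. Efficacy was scored visually about 3 weeks later against untreated controls.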

[18] = tested on: Veronica persica; assay: as above
Outline: as §3

[19] = tested on: Echinochloa crus-galli; assay: as above; conditions: scored visually after about 3 weeks vs untreated controls
Outline: as §3

[20] = tested on: Setaria viridis; assay: as above; conditions: scored visually after about 3 weeks vs untreated controls
Outline: as §3

[21] = tested on: Avena fatua; assay: as above; conditions: application rate 80 g/ha, scored visually after about 3 weeks vs untreated controls
Outline: as §3

[22] = tested on: Hordeum murinum; assay: as above; conditions: application rate 80 g/ha, scored visually after about 3 weeks vs untreated controls
Outline: as §3

[23] = tested on: Polygonum convolvulus; assay: as above; conditions: scored visually after about 3 weeks vs untreated controls
Outline: as §3

[24] = tested on: Viola tricolor; assay: as above
Outline: as §3

[25] = tested on: Matricaria inodora; assay: as above; conditions: scored visually after about 3 weeks vs untreated controls
Outline: as §3

[26] = tested on: Stellaria media; assay: as above; conditions: scored visually after about 3 weeks vs untreated controls
Outline: as §3

[27] = tested on: Pharbitis purpurea; assay: as above
Outline: as §3

[28] = tested on: Abutilon theophrasti; assay: as above; conditions: scored visually after about 3 weeks vs untreated controls
Outline: as §3

[29] = tested on: Amaranthus retroflexus; assay: as above; conditions: scored visually after about 3 weeks vs untreated controls
Outline: as §3

[30] = tested on: Zea mays; assay: Crop compatibility post-emergence (greenhouse pot trial); conditions: application rate 20 g/ha
Outline: (§4)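 Visual % damage vs untreated controls, ~3 wk post-spray (100% = plants died, 0% = as control). Plants in sandy loam, greenhouse, sprayed at one-leaf stage (2–3 wk after sowing); WP/EC in water + 0.5% additive, 600 L/ha.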

[31] = tested on: Glycine max; assay: as above; conditions: application rate 20 g/ha
Outline: as §4

[32] = tested on: Triticum aestivum; assay: as above; conditions: application rate 20 g/ha
Outline: as §4

[33] = tested on: Oryza sativa; assay: Crop compatibility pre-emergence (greenhouse pot trial); conditions: application rate 80 g/ha, effect vs untreated controls
Outline: as §1

[34] = tested on: Oryza sativa; assay: Crop compatibility post-emergence (greenhouse pot trial); conditions: application rate 20 g/ha
Outline: as §4

[35] = tested on: Digitaria sanguinalis; assay: Herbicidal action post-emergence (greenhouse pot trial); conditions: application rate 20 g/ha
Outline: as §3

Zea mays (Efficacy in %) [1]: 20%
Glycine max (Efficacy in %) [2]: 20%
Zea mays (Efficacy in %) [30]: 20%
Glycine max (Efficacy in %) [31]: 10%
Triticum aestivum (Efficacy in %) [32]: 0%
Compound: CC(Sc1cc(-n2c(=O)cc(C(F)(F)F)n(C)c2=O)c(F)cc1Cl)C(=O)OCC1CCOC1 (stereo not shown) [I.1-72]
Lolium rigidum (Efficacy in %) [3]: 100%
Cyperus esculentus (Efficacy in %) [4]: 80%
Veronica persica (Efficacy in %) [5]: 100%
Echinochloa crus-galli (Efficacy in %) [6]: 100%
Setaria viridis (Efficacy in %) [7]: 100%
Avena fatua (Efficacy in %) [8]: 100%
Hordeum murinum (Efficacy in %) [9]: 90%
Alopecurus myosuroides (Efficacy in %) [10]: 90%
Viola tricolor (Efficacy in %) [11]: 100%
Matricaria inodora (Efficacy in %) ([12]; application rate 320 g/ha): 100%
Stellaria media (Efficacy in %) [13]: 100%
Pharbitis purpurea (Efficacy in %) [14]: 100%
Abutilon theophrasti (Efficacy in %) ([15]; application rate 320 g/ha): 100%
Amaranthus retroflexus (Efficacy in %) ([16]; application rate 320 g/ha): 100%
Lolium rigidum (Efficacy in %) [17]: 100%
Veronica persica (Efficacy in %) ([18]; application rate 80 g/ha): 100%
Echinochloa crus-galli (Efficacy in %) ([19]; application rate 80 g/ha): 100%
Setaria viridis (Efficacy in %) ([20]; application rate 80 g/ha): 100%
Avena fatua (Efficacy in %) [21]: 80%
Hordeum murinum (Efficacy in %) [22]: 80%
Polygonum convolvulus (Efficacy in %) ([23]; application rate 80 g/ha): 100%
Viola tricolor (Efficacy in %) ([24]; application rate 80 g/ha): 100%
Matricaria inodora (Efficacy in %) ([25]; application rate 80 g/ha): 100%
Stellaria media (Efficacy in %) ([26]; application rate 80 g/ha): 100%
Pharbitis purpurea (Efficacy in %) ([27]; application rate 80 g/ha): 100%
Abutilon theophrasti (Efficacy in %) ([28]; application rate 80 g/ha): 100%
Amaranthus retroflexus (Efficacy in %) ([29]; application rate 80 g/ha): 100%

Zea mays (Efficacy in %) [1]: 0%
Oryza sativa (Efficacy in %) [33]: 10%
Zea mays (Efficacy in %) [30]: 20%
Oryza sativa (Efficacy in %) [34]: 0%
Triticum aestivum (Efficacy in %) [32]: 10%
Compound: CC(Sc1cc(-n2c(=O)cc(C(F)(F)F)n(C)c2=O)c(F)cc1Cl)C(=O)OCC1CCCOC1 (stereo not shown) [I.1-92]
Matricaria inodora (Efficacy in %) ([12]; application rate 80 g/ha): 100%
Abutilon theophrasti (Efficacy in %) ([15]; application rate 80 g/ha): 100%
Amaranthus retroflexus (Efficacy in %) ([16]; application rate 80 g/ha): 100%
Veronica persica (Efficacy in %) ([18]; application rate 20 g/ha): 100%
Echinochloa crus-galli (Efficacy in %) ([19]; application rate 20 g/ha): 100%
Setaria viridis (Efficacy in %) ([20]; application rate 20 g/ha): 100%
Polygonum convolvulus (Efficacy in %) ([23]; application rate 20 g/ha): 100%
Viola tricolor (Efficacy in %) ([24]; application rate 20 g/ha): 100%
Matricaria inodora (Efficacy in %) ([25]; application rate 20 g/ha): 80%
Pharbitis purpurea (Efficacy in %) ([27]; application rate 20 g/ha): 100%
Abutilon theophrasti (Efficacy in %) ([28]; application rate 20 g/ha): 100%
Amaranthus retroflexus (Efficacy in %) ([29]; application rate 20 g/ha): 100%

Zea mays (Efficacy in %) [1]: 0%
Glycine max (Efficacy in %) [2]: 10%
Oryza sativa (Efficacy in %) [33]: 20%
Zea mays (Efficacy in %) [30]: 20%
Oryza sativa (Efficacy in %) [34]: 0%
Triticum aestivum (Efficacy in %) [32]: 20%
Compound: CC(Sc1cc(-n2c(=O)cc(C(F)(F)F)n(C)c2=O)c(F)cc1Cl)C(=O)OC1CCCOC1 (stereo not shown) [I.1-126]
Matricaria inodora (Efficacy in %) ([12]; application rate 80 g/ha): 100%
Abutilon theophrasti (Efficacy in %) ([15]; application rate 80 g/ha): 100%
Amaranthus retroflexus (Efficacy in %) ([16]; application rate 80 g/ha): 100%
Veronica persica (Efficacy in %) ([18]; application rate 20 g/ha): 100%
Digitaria sanguinalis (Efficacy in %) [35]: 80%
Setaria viridis (Efficacy in %) ([20]; application rate 20 g/ha): 100%
Viola tricolor (Efficacy in %) ([24]; application rate 20 g/ha): 100%
Matricaria inodora (Efficacy in %) ([25]; application rate 20 g/ha): 90%
Stellaria media (Efficacy in %) ([26]; application rate 20 g/ha): 100%
Pharbitis purpurea (Efficacy in %) ([27]; application rate 20 g/ha): 100%
Abutilon theophrasti (Efficacy in %) ([28]; application rate 20 g/ha): 100%
Amaranthus retroflexus (Efficacy in %) ([29]; application rate 20 g/ha): 100%
